Experimental data taken from patent US20220362279A1, “USE OF OLIGONUCLEOTIDES FOR THE TREATMENT AND PREVENTION OF PAIN” (CONSEJO NACIONAL DE INVESTIGACIONES CIENTÍFICAS Y TÉCNICAS, priority 2018, published 2022).
Structures can show the parent of a compound that is named as a salt.

What was measured:
[1] = tested on: rats with postsurgical pain (plantar incision); assay: Opioid sparing: morphine in VEH- or IMT504-pre-treated rats with plantar incision, mechanical withdrawal threshold; format: in vivo, rat; settings: for effect on withdrawal thresholds: VEH-pre-treated injured rats, 6 h and 1 day after injury
Procedure: In all experiments, the oligodeoxynucleotide (ODN) IMT504, with sequence 5′-[…]-3′ (SEQ ID No 1) was used. The HPLC-grade phosphorothioate ODN (Biosynthesis Inc., Lewisville, Tex., USA) was suspended in sterile saline solution (VEH, 0.9% NaCl; 20 mg/ml; storage concentration) and assayed for LPS contamination. Working concentration doses (6 mg/kg) were obtained by additional dissolving in sterile VEH. The ODN was administered subcutaneously, at a final volume of 200-300 μl, depending on animal weight.
Experiments addressing the opioid sparing effects of IMT504 included the subcutaneous (s.c.) injection of morphine hydrochloride trihydrate (Neocalmans, 10 mg/ml, Soubeiran Chobet, Buenos Aires, Argentina) at three different concentrations (1, 3 or 10 mg/kg, dissolved in sterile distilled water).
The rat hind paw plantar incision model of postoperative pain was used as previously described [Brennan, T. J., E. P. Vandermeulen, and G. F. Gebhart, Characterization of a rat model of incisional pain. Pain, 1996. 64(3): p. 493-501. Briefly, rats were anesthetized using isoflurane (5% induction, 2.5% maintenance, 0.8 l/min O2 flow rate; Piramal Healthcare, UK) and the plantar aspect of the right hind paw was disinfected with povidone iodine. A 1.0-cm longitudinal incision was made 0.5 cm from the end of the heel. The underlying flexor muscle was also incised longitudinally, allowing the muscle origin and insertion to remain intact. After hemostasis by gentle pressure, the skin was closed with sutures of 5-0 nylon.
Rats were divided into injured rats receiving IMT504 (6 mg/kg, dissolved in VEH) or VEH alone, 48h and 24 h prior to surgery. These groups were further subdivided into: 1) Rats followed during 3 days after the injury (n=6 per group), for assessment of pain-like behavior after the co-administration of morphine dissolved in injectable water (vehicle) at different doses, 6 and 24 h after injury; 2) Rats followed during 3 days after the injury (n=6 per group), for assessment of pain-like behavior after the co-administration of injectable water (vehicle) alone, 6 and 24 h after injury; 3) Rats followed during 21 days (n=8), for analysis of the administration of naloxone, 3 days after injury.
Mechanical withdrawal thresholds were assessed by using von Frey nylon monofilaments of different bending forces (1.4, 2, 6, 8, 10, 15 and 26 g; Stoelting Inc., Wooddale, USA) and the modified up-down method of Dixon, as described by Chaplan and cols. (Chaplan, S. R., et al., Quantitative assessment of tactile allodynia in the rat paw. J Neurosci Methods, 1994. 53(1): p. 55-63) , to establish the 50% withdrawal threshold. Results were obtained using the formula: 50% g threshold=[…], where Xf=value (in log units) of the final von Frey hair used; k=tabular value for the pattern of positive/negative responses; and […] difference (in log units) between stimuli. Mechanical withdrawal thresholds were tested 48 h before surgery (basal responses), and 6 h, 1, 3, 7, 14 and 21 days after injury.
A dose-response experiment to evaluate the effect of the s.c. administration of morphine at different doses (10, 3 and 1 mg/kg), 6 h or 1 day after injury, in VEH- or IMT504-treated rats (time-points were chosen based on the fact that a certain degree of mechanical withdrawal threshold alterations was still present in IMT504-treated rats was done, which allowed to test if within this therapeutic window, it was possible to fully revert pain-like behavior using smaller morphine doses). […]

[2] = tested on: rats with postsurgical pain (plantar incision); assay: Naloxone challenge in IMT504-pre-treated rats with plantar incision, mechanical withdrawal threshold; format: in vivo, rat; settings: IMT504-treated injured rats; naloxone 2 mg/kg i.p. on day 3 after injury
Procedure: In all experiments, the oligodeoxynucleotide (ODN) IMT504, with sequence 5′-[sequence]-3′ (SEQ ID No 1) was used. The HPLC-grade phosphorothioate ODN (Biosynthesis Inc., Lewisville, Tex., USA) was suspended in sterile saline solution (VEH, 0.9% NaCl; 20 mg/ml; storage concentration) and assayed for LPS contamination. Working concentration doses (6 mg/kg) were obtained by additional dissolving in sterile VEH. The ODN was administered subcutaneously, at a final volume of 200-300 μl, depending on animal weight.
A group of rats also received an intraperitoneal (i.p.) injection of naloxone hydrochloride (Narxona 0.4 mg/ml; Scott-Cassara, Bs. As., Argentina), at a dose of 2 mg/kg, in order to test if the effect of IMT504 could be blocked by the pan-opioid receptor antagonist.
The rat hind paw plantar incision model of postoperative pain was used as previously described [Brennan, T. J., E. P. Vandermeulen, and G. F. Gebhart, Characterization of a rat model of incisional pain. […] Briefly, rats were anesthetized using isoflurane (5% induction, 2.5% maintenance, 0.8 l/min O2 flow rate; Piramal Healthcare, UK) and the plantar aspect of the right hind paw was disinfected with povidone iodine. A 1.0-cm longitudinal incision was made 0.5 cm from the end of the heel. The underlying flexor muscle was also incised longitudinally, allowing the muscle origin and insertion to remain intact. After hemostasis by gentle pressure, the skin was closed with sutures of 5-0 nylon.
Rats were divided into injured rats receiving IMT504 (6 mg/kg, dissolved in VEH) or VEH alone, 48h and 24 h prior to surgery. […]
Mechanical withdrawal thresholds were assessed by using von Frey nylon monofilaments of different bending forces (1.4, 2, 6, 8, 10, 15 and 26 g; Stoelting Inc., Wooddale, USA) and the modified up-down method of Dixon, as described by Chaplan and cols. (Chaplan, S. R., et al., Quantitative assessment of tactile allodynia in the rat paw. J Neurosci Methods, 1994. 53(1): p. 55-63) , to establish the 50% withdrawal threshold. […]

SMILES | time after injection free of pain-like behavior ([1]; VEH rats receiving 10 mg morphine) | time after administration with fully reversed pain-like behavior ([1]; VEH rats receiving 1 or 3 mg morphine, both time-points) | effect on withdrawal thresholds ([1]; morphine 10 mg/kg s.c.) | effect on withdrawal thresholds ([1]; morphine 3 and 1 mg/kg s.c.) | withdrawal threshold 15 and 30 min after naloxone [2]
CN1CC[C@]23c4c5ccc(O)c4O[C@H]2[C@@H](O)C=C[C@H]3[C@H]1C5.Cl.O.O.O [morphine, morphine hydrochloride trihydrate, reference compound] | 90 to 180 min | 60 min | very effective in increasing withdrawal thresholds | milder and comparable effects | –
C=CCN1CC[C@]23c4c5ccc(O)c4O[C@H]2C(=O)CC[C@@]3(O)[C@H]1C5 [naloxone, naloxone hydrochloride, reference compound] | – | – | – | – | drastic and significant decrease in their withdrawal threshold
